US20120328719A1, “EXTERNAL PREPARATION FOR SKIN” (Shiseido Company, Ltd., priority 2010, published 2012)

Legend:
[1] = system: skin model (EFT-400, MatTek Corp.); test: Measurement of hyaluronic acid levels in cultured skin model; format: cell-based; conditions: heparanase inhibitor 50 μM, CGS27023A 10 μM, FIG. 1B
Experimental: A skin model (EFT-400, MatTek Corp.) was cultured in a special-purpose medium (EFT-400-ASY, MatTek Corp.). […]
Measurement of hyaluronic acid levels was carried out on the aforementioned cultured control group (n=5), MMP inhibitor group (n=5), heparanase inhibitor group (n=5) and combination MMP inhibitor+heparanase inhibitor group (n=5) (n refers to the number of each skin model used in testing). […] The culture supernatants stored at −80° C. were then thawed and hyaluronic acid levels in these solutions were then measured with a hyaluronic acid assay kit (Seikagaku Corp.).

[2] = system: skin model (EFT-400, MatTek Corp.); test: Immunostaining of skin models; format: cell-based; conditions: skin model sections, vs control group; for expression level of heparan sulfate (immunostaining): days 4 and 8 of culturing, FIG. 4E-4H; for expression level of loricrin (immunostaining): FIG. 5A-5D; for expression level of filaggrin (immunostaining): FIG. 5E-5H
Experimental: A skin model (EFT-400, MatTek Corp.) was cultured in a special-purpose medium (EFT-400-ASY, MatTek Corp.). Dimethylsulfoxide (DMSO) and ethanol were added to the special-purpose medium to a final concentration of 0.1% for use as a control group, 50 mM 1-[4-(1H-benzoimidazol-2-yl)-phenyl]-3-[4-(1H-benzoimidazol-2-yl)-phenyl]urea (solvent: DMSO) were added to the special-purpose medium to a final concentration of 50 μM for use as a heparanase inhibitor group, 10 mM N-hydroxy-2-[[(4-methoxyphenyl)sulfonyl](3-picolyl)amino]-3-methylbutaneamide hydrochloride (CGS27023A, solvent: ethanol) were added to the special-purpose medium to a final concentration of 10 μM for use as an MMP inhibitor group, and 50 mM 1-[4-(1H-benzoimidazol-2-yl)-phenyl]-3-[4-(1H-benzoimidazol-2-yl)-phenyl]urea (solvent: DMSO) and 10 mM CGS27023A (solvent: ethanol) were added to the special-purpose medium to final concentrations of 50 μM and 10 μM, respectively, for use as a combination heparanase inhibitor+metalloproteinase (MMP) inhibitor group. The medium was replaced daily at 2 mL/well, and the skin model was recovered and used for experimentation on days 4 and 8 of culturing. In addition, during replacement of the medium, all of the culture fluid was collected and stored at −80° C.° for use in the experiments described below.
The skin models following culturing were cut in half with a scalpel and placed in acetone at 4° C. followed by allowing to stand undisturbed for 48 hours at 4° C. The solution was replaced with acetone, methyl benzoate and xylene in that order followed by embedding in paraffin to prepare paraffin blocks in accordance with the AMeX method. Tissue sections having a thickness of 3 μm were prepared followed by immunostaining with perlecan (FIGS. 4A to 4D), heparan sulfate (FIGS. 4E to 4H), loricrin (FIGS. 5A to 5D), filaggrin (FIGS. 5E to 5H) and Ki67 (FIG. 6) on days 4 and 8 of culturing. […] In addition, in the groups containing heparanase inhibitor, the presence of proliferative cells positive for Ki67 was clearly determined to be maintained.

[3] = Measurement of moisture transpiration rate constants (filter paper weight loss); format: physicochemical; conditions: 10 μl on filter paper, slope 3 to 8 min, FIG. 3
Experimental: Heparan sulfate (n=5), chondroitin sulfate A (n=5), chondroitin sulfate B (n=5), keratan sulfate (n=5) and hyaluronic acid (n=5) were dissolved in MilliQ to prepare 0.2% aqueous solutions of each, and 5.0% glycerin (n=5) and MilliQ were prepared for use as a comparative sample (n refers to the respective number of samples). Filter paper cut to a size of 2 cm×2 cm was placed on a balance, and the filter paper was impregnated with 10 μl of each solution followed by measuring the weight of the filter paper for 8 minutes at 1 minute intervals. The weight (mg) of the filter paper from 3 to 8 minutes after the start of measurement was plotted on the vertical axis, elapsed time (min) was plotted on the horizontal axis, and the slope (mg/min) of the resulting line was calculated as the moisture transpiration rate constant (FIG. 3).

| Compound | hyaluronic acid levels in culture supernatant [1] | expression level of heparan sulfate (immunostaining) [2] | expression level of loricrin (immunostaining) [2] | expression level of filaggrin (immunostaining) [2] | moisture transpiration rate constant ([3]; 0.2% aqueous solution) | moisture transpiration rate constant ([3]; 5.0% glycerin comparative sample) |
| --- | --- | --- | --- | --- | --- | --- |
| O=C(Nc1ccc(-c2nc3ccccc3[nH]2)cc1)Nc1ccc(-c2nc3ccccc3[nH]2)cc1 [heparanase inhibitor, 1-[4-(1H-benzoimidazol-2-yl)-phenyl]-3-[4-(1H-benzoimidazol-2-yl)-phenyl]urea] | significant decreases | increased | increased | increased | – | – |
| COc1ccc(S(=O)(=O)N(Cc2cccnc2)C(C(=O)NO)C(C)C)cc1.Cl (stereo not drawn) [MMP inhibitor, N-hydroxy-2-[[(4-methoxyphenyl)sulfonyl](3-picolyl)amino]-3-methylbutaneamide hydrochloride] | – | increased | increased | increased | – | – |
| hyaluronic acid | – | – | – | – | remarkably low | – |
| OCC(O)CO [glycerin] | – | – | – | – | – | roughly the same |
